Consider 53 molecules from US20140336216A1, “PHYSIOLOGICAL LIGANDS FOR GPR139” (Janssen Pharmaceutica NV, priority 2013, published 2014).

Several values for one entry are separate records, joined by “and”; a condition that tells them apart may be missing. Equal values may be shown once.

One experiment concerns the target T1, GPR139 (Homo sapiens, UniProt Q6DWJ6).
T1 sequence (Q6DWJ6 1-353): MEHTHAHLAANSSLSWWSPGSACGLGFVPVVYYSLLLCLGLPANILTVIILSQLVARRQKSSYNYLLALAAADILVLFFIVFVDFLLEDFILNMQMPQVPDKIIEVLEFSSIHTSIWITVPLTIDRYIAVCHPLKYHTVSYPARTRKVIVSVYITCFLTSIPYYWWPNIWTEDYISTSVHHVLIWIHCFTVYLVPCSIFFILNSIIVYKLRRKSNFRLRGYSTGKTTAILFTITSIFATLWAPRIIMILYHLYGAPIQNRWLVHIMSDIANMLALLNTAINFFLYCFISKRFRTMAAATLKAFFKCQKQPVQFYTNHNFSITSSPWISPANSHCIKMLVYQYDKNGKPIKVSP
The experiment in a line: GTPγS binding assay, single-concentration screen, COS7 membranes co-expressing GPR139 and GO2Q. It counts as biochemical. Further details: expressed in transfected cells; host or cells: COS7 (membranes). Particulars: 1 mM final concentration; COS7 membranes co-expressing GPR139 and GO2Q; single wells of triplicate. Here is the method:
(§1) In order identify the ligands for GPR139 two improvements in the detection assay were made to allow for the ligands to be detected. First, we chose to use a GTPγS binding assay instead of using live cultured cells. The GTPγS binding assay is a cell free system that uses the cell membrane of the cell(s) of interest rather than the live cell(s). One advantage of this assay is that potential ligands present in the cell culture media are washed away when the cell membrane is prepared. This reduces the basal level of signal and increase the chance of detecting receptor ligands when assessing compounds that activate the receptor. Second, a GO2Q chimeric G-protein was created to be co-expressed with GPR139 in order to increase the signal-to-noise ratio in the GTPγS binding assay. Historically, the Gi, Go coupled GPCRs offer much greater signal-to-noise ratio in GTPγS binding studies. For Gs and Gq coupled GPCRs, although ligand-stimulated specific signals can be detected in a GTPγS binding assay, the signal-to-noise ratios are often very small. To address this a chimeric GO2-Gq chimeric G-protein, GO2Q, with the N-terminus from Go2 protein and the C-terminus from Gq protein.
(§2) To test for compounds that activate GPR139, different amino acids and their derivatives (Table 2) were tested as ligands in the GTPγS binding assay using cell membranes from COS7 cells co-expressing GPR139 and GO2Q. Cell membrane from COS7 cells expressing GO2Q alone or co-expressing other GPCRs were also tested in GTPγS binding assay in parallel as controls. Each compound was tested in triplicate.
Consider `CNCC(O)c1ccc(O)c(O)c1` (stereo not drawn) [Adrenaline], for which the “Activation levels of GPR139 (GTPγS binding), GPR139-GO2Q” value is 2721 and 2624 and 2670.

In another experiment the test system is GO2Q alone. The experiment can be described thus: GTPγS binding assay, control COS7 membranes expressing GO2Q alone (Ct-GO2Q). It counts as biochemical. Particulars: 1 mM final concentration; COS7 membranes expressing GO2Q alone; single wells of triplicate. Here is the method: as §1, §2
With `CNCC(O)c1ccc(O)c(O)c1` (stereo not drawn) [Adrenaline], the “Activation levels (GTPγS binding), Ct-GO2Q” value was 2240 and 2117 and 2045.

The target in a further experiment is T1, GPR139. The experiment can be described thus: Calcium mobilization assay (FLIPR), GPR139 expressed in HEK293 cells. It counts as cell-based. Further details: expressed in transfected cells; host or cells: HEK293 (transient). Particulars: 300 μM; calcium mobilization as percentage of that observed for L-phenylalanine. Here is the method: FIG. 3A and FIG. 3B: Provides the results of experiments conducted to determine whether Trp and its derivatives (FIG. 3A) and Phe and its derivatives (FIG. 3B) stimulate Ca^2+ mobilization in HEK293 cells expressing GPR139.
The active compounds were also tested in a calcium mobilization assay (FLIPR® assay). For these experiments human GPR139 was transiently expressed in HEK293 cells and calcium mobilization was stimulated using L-Trp, L-Phe or their derivatives. […] The concentrations of L-Trp and L-Phe in many cell culture media (for instance DMEM is about 80 μM and 750 μM respectively) are close to the EC50 values of L-Trp and L-Phe for GPR139. […] This may explain why GPR139 appeared constitutively active when recombinantly expressed in mammalian cells.
About 300 additional phenylalanine analogues have been tested for GPR139 activation using a calcium mobilization (FLIPR®) assay. The results of these experiments indicate that many of these analogues can also activate GPR139. Table 4 lists certain phenylalanine analogues that have been determined to activate GPR139 by calcium mobilization at a concentration of 300 μM (calcium mobilization is expressed as percentage of that observed for L-phenylalanine).
As for `N[C@@H](Cc1ccc(Br)s1)C(=O)O` [2-(5-bromothienyl)-L-alanine], the “% L-phenylalanine at 300 μM (average), calcium mobilization” value (from here on “% L-phenylalanine … calcium mobilization”) is listed as 151 % L-phenylalanine.

Regarding `CC(C)(C)OC(=O)N1Cc2ccccc2C[C@@H]1C(=O)O` [(3R)-2-tert-butoxycarbony 1-3,4-dihydro-1H-isoquinoline-3-carboxylic acid], the “% L-phenylalanine … calcium mobilization” value is reported as 155 % L-phenylalanine.

In the case of `O=C(O)[C@@H]1Cc2c([nH]c3ccccc23)CN1` [L-1,2,3,4-tetrahydronorharman-3-carboxylic acid], the “% L-phenylalanine … calcium mobilization” value is 151 % L-phenylalanine.

With `N[C@H](CCc1ccccc1)C(=O)O` [d-Homo-phenylalanine], the “% L-phenylalanine … calcium mobilization” value is 105 % L-phenylalanine.

Regarding S-(5-bromothienyl)-D-alanine, the “% L-phenylalanine … calcium mobilization” value came out at 154 % L-phenylalanine.

Regarding S-Nitro-L-phenylalanine, the “% L-phenylalanine … calcium mobilization” value is recorded as 150 % L-phenylalanine.

Still in this experiment, the particulars now being: HEK293, read-out: % L-phenylalanine at 300 μM (average), calcium mobilization.
For `N[C@@H](Cc1ccc([N+](=O)[O-])cc1[N+](=O)[O-])C(=O)O` [2,4-Dinitro-L-phenylalanine], the Emax at 300 µM was determined as 95%.

On to `N[C@H](Cc1ccc(Br)cc1)C(=O)O` [4-Bromo-D-phenylalanine], for which the Emax at 300 µM came out at 139%.

As to `N[C@@H](Cc1ccc(Br)cc1)C(=O)O` [4-Bromo-L-phenylalanine], the Emax at 300 µM is 153%.

The same experiment, now with this note: HEK293; 300 μM; calcium mobilization as percentage of that observed for L-phenylalanine; read-out: % L-phenylalanine at 300 μM (average), calcium mobilization.
With `N[C@H](Cc1c(F)c(F)c(F)c(F)c1F)C(=O)O` [2,3,4,5,6-P entafluoro-D-phenylalanine], the Emax at 300 µM turned out to be 145%.

Regarding `N[C@H](Cc1ccc(Cl)cc1Cl)C(=O)O` [2,4-Dichloro-D-phenylalanine], the Emax at 300 µM is 135%.

For the molecule `N[C@@H](Cc1ccc(Cl)cc1Cl)C(=O)O` [2,4-Dichloro-L-phenylalanine], the Emax at 300 µM was determined as 122%.

In the case of `Cc1ccc(C[C@@H](N)C(=O)O)c(C)c1` [2,4-Dimethyl-D-phenylalanine], the Emax at 300 µM turned out to be 101%.

Take `Cc1ccc(C[C@H](N)C(=O)O)c(C)c1` [2,4-Dimethyl-L-phenylalanine]: the Emax at 300 µM was 113%.

As for `N[C@H](Cc1ccccc1Br)C(=O)O` [2-Bromo-D-phenylalanine], the Emax at 300 µM was 135%.

For the molecule `N[C@@H](Cc1ccccc1Br)C(=O)O` [2-Bromo-L-phenylalanine], the Emax at 300 µM is 168%.

For `N[C@@H](Cc1ccccc1F)C(=O)O` [2-Fluoro-L-phenylalanine], the Emax at 300 µM turned out to be 119%.

Turning to `Cc1ccccc1C[C@@H](N)C(=O)O` [2-Methyl-D-phenylalanine], the Emax at 300 µM is 109%.

For `Cc1ccccc1C[C@H](N)C(=O)O` [2-Methyl-L-phenylalanine], the Emax at 300 µM amounted to 134%.

Take `N[C@@H](Cc1ccccc1C(F)(F)F)C(=O)O` [2-Trifluoromethyl-L-phenylalanine]: the Emax at 300 µM stood at 110%.

Take `N[C@H](C(=O)O)C(c1ccccc1)c1ccccc1` [3,3-Diphenyl-L-alanine]: the Emax at 300 µM was found to be 117%.

For `N[C@H](Cc1ccc(Cl)c(Cl)c1)C(=O)O` [3,4-Dichloro-D-phenylalanine], the Emax at 300 µM was 149%.

Turning to `N[C@@H](Cc1ccc(Cl)c(Cl)c1)C(=O)O` [3,4-Dichloro-L-phenylalanine], the Emax at 300 µM came to 149%.

Take `N[C@H](Cc1ccc(F)c(F)c1)C(=O)O` [3,4-Difluoro-D-phenylalanine]: the Emax at 300 µM stood at 121%.

For the molecule `N[C@H](Cc1cc(F)cc(F)c1)C(=O)O` [3,5-Difluoro-D-phenylalanine], the Emax at 300 µM was 102%.

Consider `N[C@H](Cc1cccc(Br)c1)C(=O)O` [3-Bromo-D-phenylalanine], for which the Emax at 300 µM was determined as 172%.

With `N[C@@H](Cc1cccc(Br)c1)C(=O)O` [3-Bromo-L-phenylalanine], the Emax at 300 µM turned out to be 167%.

Consider `N[C@H](Cc1cccc(Cl)c1)C(=O)O` [3-Chloro-D-phenylalanine], for which the Emax at 300 µM turned out to be 147%.

As to `N[C@@H](Cc1cccc(Cl)c1)C(=O)O` [3-Chloro-L-phenylalanine], the Emax at 300 µM was determined as 145%.

As for `N#Cc1cccc(C[C@@H](N)C(=O)O)c1` [3-Cyano-D-phenylalanine], the Emax at 300 µM is 93%.

For `N#Cc1cccc(C[C@H](N)C(=O)O)c1` [3-Cyano-L-phenylalanine], the Emax at 300 µM was determined as 115%.

As for `N[C@H](Cc1cccc(F)c1)C(=O)O` [3-Fluoro-D-phenylalanine], the Emax at 300 µM is 94%.

In the case of `N[C@@H](Cc1cccc(F)c1)C(=O)O` [3-Fluoro-L-phenylalanine], the Emax at 300 µM was found to be 114%.

On to `Cc1cccc(C[C@@H](N)C(=O)O)c1` [3-Methyl-D-phenylalanine], for which the Emax at 300 µM is 150%.

Turning to `Cc1cccc(C[C@H](N)C(=O)O)c1` [3-Methyl-L-phenylalanine], the Emax at 300 µM was 147%.

In the case of `N[C@H](Cc1cccc([N+](=O)[O-])c1)C(=O)O` [3-Nitro-D-Phenylalanin], the Emax at 300 µM was found to be 164%.

As for `N[C@@H](Cc1cccc([N+](=O)[O-])c1)C(=O)O` [3-Nitro-L-phenylalanine], the Emax at 300 µM stood at 131%.

As to `N[C@@H](Cc1cccc(C(F)(F)F)c1)C(=O)O` [3-Trifluoromethyl-L-phenylalanine], the Emax at 300 µM was determined as 133%.

With `N[C@H](Cc1ccc(Cl)cc1)C(=O)O` [4-Chloro-D-phenylalanine], the Emax at 300 µM was found to be 110%.

As to `N[C@@H](Cc1ccc(Cl)cc1)C(=O)O` [4-Chloro-L-phenylalanine], the Emax at 300 µM amounted to 146%.

As for `N[C@H](Cc1ccc(F)cc1)C(=O)O` [4-Fluoro-D-phenylalanine], the Emax at 300 µM came to 91%.

Regarding `N[C@@H](Cc1ccc(F)cc1)C(=O)O` [4-Fluoro-L-phenylalanine], the Emax at 300 µM amounted to 132%.

As for `N[C@H](Cc1ccc(I)cc1)C(=O)O` [4-Iodo-D-phenylalanine], the Emax at 300 µM worked out at 125%.

Regarding `N[C@@H](Cc1ccc(I)cc1)C(=O)O` [4-Iodo-L-phenylalanine], the Emax at 300 µM came to 116%.

On to `COc1ccc(C[C@H](N)C(=O)O)cc1` [4-Methoxy-L-phenylalanine], for which the Emax at 300 µM is 128%.

In the case of `Cc1ccc(C[C@@H](N)C(=O)O)cc1` [4-Methyl-D-phenylalanine], the Emax at 300 µM came out at 102%.

Take `Cc1ccc(C[C@H](N)C(=O)O)cc1` [4-Methyl-L-phenylalanine]: the Emax at 300 µM came to 149%.

Turning to `N[C@H](Cc1ccc([N+](=O)[O-])cc1)C(=O)O` [4-Nitro-D-phenylalanine], the Emax at 300 µM was found to be 111%.

Turning to `N[C@@H](Cc1ccc(C(F)(F)F)cc1)C(=O)O` [4-Trifluoromethyl-L-phenylalanine], the Emax at 300 µM turned out to be 150%.

As to `CC(C)(C)c1ccc(C[C@H](N)C(=O)O)cc1` [4-tert-Butyl-L-phenylalanine], the Emax at 300 µM worked out at 115%.

In the case of `N[C@H](CCCc1ccccc1)C(=O)O` [D-2-Amino-5-phenyl-pentanoic acid], the Emax at 300 µM was 129%.

In the case of `C[C@](N)(Cc1ccc(F)cc1)C(=O)O` [α-methyl-4-Fluoro-L-phenylalanine], the Emax at 300 µM came out at 125%.
